# Test results from the supplement of paper PMC10307832.
# How the values were obtained:
# Assay in all cases: relative viability (nuclei count vs DMSO), 5 days (fraction); higher = more cells survive
# EKVX = system: EKVX
# Method in brief: (§1)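 Lung cancer cell lines were pin-tool dosed in 1536-well plates on the day after seeding, with either a lone drug or a fixed anchor-drug dose plus five library-drug doses (not always all listed) in √10 steps. Nuclei were counted on 4× images after 5 days. Relative viability is the ratio of treated-well to vehicle-well nuclei counts, with each value a median of duplicate plates.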
# NCI-H727 = system: NCI-H727
# Method in brief: as §1
# NCI-H661 = system: NCI-H661
# Method in brief: as §1
# CAL-12T = system: CAL-12T
# Method in brief: as §1
# 201T = system: 201T
# Method in brief: as §1
# SW 900 = system: SW 900
# Method in brief: as §1
# NCI-H441 = system: NCI-H441
# Method in brief: as §1
# LOU-NH91 = system: LOU-NH91
# Method in brief: as §1
# NCI-H1650 = system: NCI-H1650
# Method in brief: as §1
# BEN = system: BEN
# Method in brief: as §1
# PC-14 = system: PC-14
# Method in brief: as §1
# NCI-H2009 = system: NCI-H2009
# Method in brief: as §1
# COR-L 105 = system: COR-L 105
# Method in brief: as §1
# HARA = system: HARA
# Method in brief: as §1
# NCI-H460 = system: NCI-H460
# Method in brief: as §1
# NCI-H2170 = system: NCI-H2170
# Method in brief: as §1
# LK-2 = system: LK-2
# Method in brief: as §1
# NCI-H1437 = system: NCI-H1437
# Method in brief: as §1
# NCI-H3122 = system: NCI-H3122
# Method in brief: as §1
# HCC-366 = system: HCC-366
# Method in brief: as §1
# NCI-H1666 = system: NCI-H1666
# Method in brief: as §1
smiles,measurement,setting,value
O=c1cc(-c2cccc3c2Sc2ccccc2S3)oc(N2CCOCC2)c1 + CC(=O)Nc1cccc(-n2c(=O)n(C3CC3)c(=O)c3c(Nc4ccc(I)cc4F)n(C)c(=O)c(C)c32)c1 [Trametinib] (partner 0.02 µM),relative viability,EKVX; first compound 0.08 µM,0.554
same,relative viability,EKVX; first compound 0.253 µM,0.332
same,relative viability,EKVX; first compound 0.8 µM,0.296
same,relative viability,EKVX; first compound 2.53 µM,0.332
same,relative viability,EKVX; first compound 8 µM,0.336
same,relative viability,NCI-H727; first compound 0.08 µM,0.367
same,relative viability,NCI-H727; first compound 0.253 µM,0.37
same,relative viability,NCI-H727; first compound 2.53 µM,0.311
same,relative viability,NCI-H727; first compound 8 µM,0.389
same,relative viability,NCI-H661; first compound 0.08 µM,0.565
same,relative viability,NCI-H661; first compound 0.253 µM,0.649
same,relative viability,NCI-H661; first compound 0.8 µM,0.527
same,relative viability,NCI-H661; first compound 2.53 µM,0.514
same,relative viability,NCI-H661; first compound 8 µM,0.471
same,relative viability,CAL-12T; first compound 0.08 µM,0.297
same,relative viability,CAL-12T; first compound 0.253 µM,0.333
same,relative viability,CAL-12T; first compound 0.8 µM,0.305
same,relative viability,CAL-12T; first compound 2.53 µM,0.263
same,relative viability,CAL-12T; first compound 8 µM,0.246
same,relative viability,201T; first compound 0.08 µM,0.722
same,relative viability,201T; first compound 0.253 µM,0.735
same,relative viability,201T; first compound 0.8 µM,0.727
same,relative viability,201T; first compound 2.53 µM,0.673
same,relative viability,201T; first compound 8 µM,0.686
same,relative viability,SW 900; first compound 0.253 µM,0.93
same,relative viability,SW 900; first compound 0.8 µM,0.777
same,relative viability,SW 900; first compound 2.53 µM,0.814
same,relative viability,SW 900; first compound 8 µM,0.816
same,relative viability,NCI-H441; first compound 0.08 µM,0.34
same,relative viability,NCI-H441; first compound 0.253 µM,0.527
same,relative viability,NCI-H441; first compound 0.8 µM,0.55
same,relative viability,NCI-H441; first compound 2.53 µM,0.465
same,relative viability,NCI-H441; first compound 8 µM,0.424
same,relative viability,LOU-NH91; first compound 0.08 µM,0.772
same,relative viability,LOU-NH91; first compound 0.253 µM,0.884
same,relative viability,LOU-NH91; first compound 0.8 µM,0.732
same,relative viability,LOU-NH91; first compound 2.53 µM,0.719
same,relative viability,LOU-NH91; first compound 8 µM,0.777
same,relative viability,NCI-H1650; first compound 0.08 µM,0.516
same,relative viability,NCI-H1650; first compound 0.253 µM,0.648
same,relative viability,NCI-H1650; first compound 0.8 µM,0.503
same,relative viability,NCI-H1650; first compound 2.53 µM,0.497
same,relative viability,NCI-H1650; first compound 8 µM,0.622
same,relative viability,BEN; first compound 0.08 µM,0.945
same,relative viability,BEN; first compound 0.253 µM,0.982
same,relative viability,BEN; first compound 0.8 µM,1.1
same,relative viability,BEN; first compound 2.53 µM,0.975
same,relative viability,BEN; first compound 8 µM,1.07
same,relative viability,PC-14; first compound 0.08 µM,0.748
same,relative viability,PC-14; first compound 0.253 µM,0.828
same,relative viability,PC-14; first compound 0.8 µM,0.728
same,relative viability,PC-14; first compound 2.53 µM,0.827
same,relative viability,PC-14; first compound 8 µM,0.718
same,relative viability,NCI-H2009; first compound 0.08 µM,0.257
same,relative viability,NCI-H2009; first compound 0.253 µM,0.236
same,relative viability,NCI-H2009; first compound 0.8 µM,0.24
same,relative viability,NCI-H2009; first compound 2.53 µM,0.213
same,relative viability,NCI-H2009; first compound 8 µM,0.208
same,relative viability,COR-L 105; first compound 0.08 µM,0.397
same,relative viability,COR-L 105; first compound 0.253 µM,0.359
same,relative viability,COR-L 105; first compound 0.8 µM,0.383
same,relative viability,COR-L 105; first compound 2.53 µM,0.434
same,relative viability,COR-L 105; first compound 8 µM,0.461
same,relative viability,HARA; first compound 0.08 µM,0.786
same,relative viability,HARA; first compound 0.253 µM,0.615
same,relative viability,HARA; first compound 0.8 µM,0.537
same,relative viability,HARA; first compound 2.53 µM,0.668
same,relative viability,HARA; first compound 8 µM,0.581
same,relative viability,NCI-H460; first compound 0.08 µM,0.147
same,relative viability,NCI-H460; first compound 0.253 µM,0.163
same,relative viability,NCI-H460; first compound 0.8 µM,0.113
same,relative viability,NCI-H460; first compound 2.53 µM,0.091
same,relative viability,NCI-H460; first compound 8 µM,0.1
same,relative viability,NCI-H2170; first compound 0.08 µM,0.996
same,relative viability,NCI-H2170; first compound 0.253 µM,1.08
same,relative viability,NCI-H2170; first compound 0.8 µM,1.06
same,relative viability,NCI-H2170; first compound 2.53 µM,0.816
same,relative viability,NCI-H2170; first compound 8 µM,1.01
same,relative viability,LK-2; first compound 0.08 µM,0.874
same,relative viability,LK-2; first compound 0.253 µM,0.852
same,relative viability,LK-2; first compound 0.8 µM,0.755
same,relative viability,LK-2; first compound 2.53 µM,0.712
same,relative viability,LK-2; first compound 8 µM,1.03
same,relative viability,NCI-H1437; first compound 0.08 µM,0.47
same,relative viability,NCI-H1437; first compound 0.253 µM,0.64
same,relative viability,NCI-H1437; first compound 0.8 µM,0.483
same,relative viability,NCI-H1437; first compound 2.53 µM,0.395
same,relative viability,NCI-H1437; first compound 8 µM,0.412
same,relative viability,NCI-H3122; first compound 0.08 µM,0.259
same,relative viability,NCI-H3122; first compound 0.253 µM,0.299
same,relative viability,NCI-H3122; first compound 0.8 µM,0.314
same,relative viability,NCI-H3122; first compound 2.53 µM,0.193
same,relative viability,NCI-H3122; first compound 8 µM,0.292
same,relative viability,HCC-366; first compound 0.08 µM,0.31
same,relative viability,HCC-366; first compound 0.253 µM,0.474
same,relative viability,HCC-366; first compound 0.8 µM,0.339
same,relative viability,HCC-366; first compound 2.53 µM,0.33
same,relative viability,HCC-366; first compound 8 µM,0.284
same,relative viability,NCI-H1666; first compound 0.08 µM,0.828
same,relative viability,NCI-H1666; first compound 0.253 µM,0.916
same,relative viability,NCI-H1666; first compound 0.8 µM,0.864
same,relative viability,NCI-H1666; first compound 2.53 µM,0.89
same,relative viability,NCI-H1666; first compound 8 µM,0.793
